Measured values reported in PubChem BioAssay AID1963448 (Molecular Pharmacology Branch, DTP, NCI, 2024).

Tested on: 616215-338-R-J1-PDC complex spheroid growth, % test/control
Experiment: Anticancer human tumor 616215-338-R-J1-PDC patient-derived colon adenocarcinoma cell line growth inhibition [Asc]
Conditions: for IC50: curve of first compound; for viability, T/C: stronger effect = lower value
Procedure, shortened: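 Concentration series start at each agent's clinical Cmax, or at 10 microM when none is established, and drop in half-log steps; agents are applied alone or together to complex spheroids built with HUVEC and hMSC.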

[1] = second compound 0.00316 µM, first compound 0.00316 µM
[2] = second compound 0.00316 µM, first compound 0.01 µM
[3] = second compound 0.00316 µM, first compound 0.0316 µM
[4] = second compound 0.00316 µM, first compound 0.1 µM
[5] = second compound 0.00316 µM, first compound 0.316 µM
[6] = second compound 0.00316 µM, first compound 1 µM
[7] = second compound 0.01 µM, first compound 0.00316 µM
[8] = second compound 0.01 µM, first compound 0.01 µM
[9] = second compound 0.01 µM, first compound 0.0316 µM
[10] = second compound 0.01 µM, first compound 0.1 µM
[11] = second compound 0.01 µM, first compound 0.316 µM
[12] = second compound 0.01 µM, first compound 1 µM
[13] = second compound 0.0316 µM, first compound 0.00316 µM
[14] = second compound 0.0316 µM, first compound 0.01 µM
[15] = second compound 0.0316 µM, first compound 0.0316 µM
[16] = second compound 0.0316 µM, first compound 0.1 µM
[17] = second compound 0.0316 µM, first compound 0.316 µM
[18] = second compound 0.0316 µM, first compound 1 µM
[19] = second compound 0.1 µM, first compound 0.00316 µM
[20] = second compound 0.1 µM, first compound 0.01 µM
[21] = second compound 0.1 µM, first compound 0.0316 µM
[22] = second compound 0.1 µM, first compound 0.1 µM
[23] = second compound 0.1 µM, first compound 0.316 µM
[24] = second compound 0.1 µM, first compound 1 µM
[25] = second compound 0.316 µM, first compound 0.00316 µM
[26] = second compound 0.316 µM, first compound 0.01 µM
[27] = second compound 0.316 µM, first compound 0.0316 µM
[28] = second compound 0.316 µM, first compound 0.1 µM
[29] = second compound 0.316 µM, first compound 0.316 µM
[30] = second compound 0.316 µM, first compound 1 µM
[31] = second compound 1 µM, first compound 0.00316 µM
[32] = second compound 1 µM, first compound 0.01 µM
[33] = second compound 1 µM, first compound 0.0316 µM
[34] = second compound 1 µM, first compound 0.1 µM
[35] = second compound 1 µM, first compound 0.316 µM
[36] = second compound 1 µM, first compound 1 µM
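Note: spheroids exposed to agents for seven days before readout.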
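Throughout, for viability, T/C: 100% = DMSO vehicle control viability.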

Work on `CCN1CCN(Cc2ccc(Nc3ncc(F)c(-c4cc(F)c5nc(C)n(C(C)C)c5c4)n3)nc2)CC1` + CNC(C)C(=O)NC1CN(S(=O)(=O)c2cccc(S(=O)(=O)N3CCC4CCC(C(=O)NC(c5ccccc5)c5ccccc5)N4C(=O)C(NC(=O)C(C)NC)C3)c2)CCC2CCC(C(=O)NC(c3ccccc3)c3ccccc3)N2C1=O yielded an IC50 (second compound 0.00316 µM) of 261 nM, an IC50 (second compound 0.01 µM) of 298 nM and an IC50 (second compound 0.0316 µM) of 586 nM. It also gave an IC50 (second compound 0.1 µM) of 441 nM, an IC50 (second compound 0.316 µM) of 386 nM and an IC50 (second compound 1 µM) of 555 nM. For the same molecule, the viability, T/C [1] was 105%, the viability, T/C [2] was 105% and the viability, T/C [3] was 92.1%. For the same molecule, the viability, T/C [4] was 92.4%, the viability, T/C [5] was 41.5% and the viability, T/C [6] was 16%. The viability, T/C [7] was 106%, the viability, T/C [8] was 112% and the viability, T/C [9] was 99.2%. For the same molecule, the viability, T/C [10] was 60.1%, the viability, T/C [11] was 58% and the viability, T/C [12] was 18.8%. It also gave a viability, T/C [13] of 100%, a viability, T/C [14] of 114% and a viability, T/C [15] of 90.9%. It also gave a viability, T/C [16] of 90%, a viability, T/C [17] of 87.9% and a viability, T/C [18] of 19.5%. It also gave a viability, T/C [19] of 107%, a viability, T/C [20] of 105% and a viability, T/C [21] of 102%. The viability, T/C [22] was 67.7%, the viability, T/C [23] was 73.3% and the viability, T/C [24] was 18.9%. For the same molecule, the viability, T/C [25] was 111%, the viability, T/C [26] was 107% and the viability, T/C [27] was 90.4%. It also gave a viability, T/C [28] of 61.8%, a viability, T/C [29] of 61.3% and a viability, T/C [30] of 33.3%. For the same molecule, the viability, T/C [31] was 100%, the viability, T/C [32] was 111% and the viability, T/C [33] was 101%. The viability, T/C [34] was 101%, the viability, T/C [35] was 67.8% and the viability, T/C [36] was 31.3%.
For `O=C(c1ccc(F)c(F)c1Nc1ccc(I)cc1F)N1CC(O)([C@@H]2CCCCN2)C1` + CNC(C)C(=O)NC1CN(S(=O)(=O)c2cccc(S(=O)(=O)N3CCC4CCC(C(=O)NC(c5ccccc5)c5ccccc5)N4C(=O)C(NC(=O)C(C)NC)C3)c2)CCC2CCC(C(=O)NC(c3ccccc3)c3ccccc3)N2C1=O, the IC50 (second compound 0.00316 µM) was 40.6 nM, the IC50 (second compound 0.01 µM) was 19.2 nM and the IC50 (second compound 0.0316 µM) was 46.6 nM. For the same molecule, the IC50 (second compound 0.1 µM) was 44.6 nM, the IC50 (second compound 0.316 µM) was 38.5 nM and the IC50 (second compound 1 µM) was 24 nM. It also gave a viability, T/C [1] of 113%, a viability, T/C [2] of 94.8% and a viability, T/C [3] of 64.3%. It also gave a viability, T/C [4] of 3.19%, a viability, T/C [5] of 0.64% and a viability, T/C [6] of 0.34%. It also gave a viability, T/C [7] of 98.9%, a viability, T/C [8] of 109% and a viability, T/C [9] of 8.64%. It also gave a viability, T/C [10] of 18.4%, a viability, T/C [11] of 2.31% and a viability, T/C [12] of 2.27%. The viability, T/C [13] was 103%, the viability, T/C [14] was 87.8% and the viability, T/C [15] was 71.4%. It also gave a viability, T/C [16] of 8.55%, a viability, T/C [17] of 1.84% and a viability, T/C [18] of 1.89%. The viability, T/C [19] was 99.6%, the viability, T/C [20] was 99.8% and the viability, T/C [21] was 70.7%. The viability, T/C [22] was 1.22%, the viability, T/C [23] was 0.55% and the viability, T/C [24] was 1.32%. It also gave a viability, T/C [25] of 109%, a viability, T/C [26] of 107% and a viability, T/C [27] of 56%. For the same molecule, the viability, T/C [28] was 14.7%, the viability, T/C [29] was 2.54% and the viability, T/C [30] was 1.35%. The viability, T/C [31] was 102%, the viability, T/C [32] was 106% and the viability, T/C [33] was 32.9%. For the same molecule, the viability, T/C [34] was 1.86%, the viability, T/C [35] was 0.87% and the viability, T/C [36] was 1.24%.
